Consider 24 compounds from ChEMBL document CHEMBL1123685, “Synthesis and antiviral activity of various 3'-azido, 3'-amino, 2',3'-unsaturated, and 2',3'-dideoxy analogues of pyrimidine deoxyribonucleosides against retroviruses” (1987).

What all share (assay type): functional
In test [1] the test system is Moloney murine leukemia virus. Put plainly: In vitro inhibitory activity against Moloney murine leukemia virus (M-MULV) replication, a mammalian T-lymphotropic retrovirus. The note with it: read-out: ED50 (the source's name).
Test [2] deals with Moloney murine leukemia virus. As to the kind of experiment: Compound was tested against Moloney murine leukemia virus (M-MULV) in 3T3 cells, at a concentration of 10 uM. The note with it: NIH3T3.
The subject of test [3] is Human immunodeficiency virus 1. As to the kind of experiment: Activity against HTLV-III/LAV[…], was determined in vitro. The note with it: read-out: ED50 (the source's name).

Broadly, the inhibition is the drop in the measured response relative to a control, in per cent.

For `Cc1cn([C@H]2CC[C@@H](CO)O2)c(=O)[nH]c1=O`, the EC50 in test [1] is above 100 µM. For the same compound, the inhibition at 10 µM in test [2] was 50%.
For `Cc1cn([C@H]2C[C@H](O)[C@@H](CN=[N+]=[N-])O2)c(=O)[nH]c1=O`, the EC50 in test [1] was above 100 µM.
On the same count and under the same terms, the figure for `O=c1[nH]c(=O)n([C@H]2CC[C@@H](CO)O2)cc1/C=C/Br` is above 100 µM; for `Cc1cn([C@H]2C[C@H](N)[C@@H](CN)O2)c(=O)[nH]c1=O` it is above 100 µM.
The same measure, in the same setting: the figure for `Cc1cn([C@H]2C[C@H](N)[C@@H](CO)O2)c(=O)[nH]c1=O` [3-AMINO- 3-DEOXYTHYMIDINE] is 42 µM.
On to `[N-]=[N+]=N[C@H]1C[C@H](n2cc(Br)c(=O)[nH]c2=O)O[C@@H]1CO`, for which the EC50 in test [3] came out at 2.3 µM; in test [1], 1.5 µM.
On to `O=c1[nH]c(=O)n([C@H]2CC[C@@H](CO)O2)cc1I`, for which the EC50 in test [1] is above 100 µM.
On the same count and under the same terms, the figure for `[N-]=[N+]=N[C@H]1C[C@H](n2ccc(=O)[nH]c2=O)O[C@@H]1CO` [NAVURIDINE] is 52 µM; for `O=c1ccn([C@H]2CC[C@@H](CO)O2)c(=O)[nH]1` it is above 100 µM.
For `[N-]=[N+]=N[C@H]1C[C@H](n2cc(F)c(=O)[nH]c2=O)O[C@@H]1CO`, the EC50 in test [1] is above 100 µM.
The same measure, in the same setting: the figure for `[N-]=[N+]=N[C@H]1C[C@H](n2cc(I)c(=O)[nH]c2=O)O[C@@H]1CO` is 3 µM.
The same measure, in the same setting: the figure for `Cc1cn([C@H]2C[C@H](N=[N+]=[N-])[C@@H](CO)O2)c(=O)nc1N` is above 100 µM.
Same read-out and setting: the figure for `[N-]=[N+]=N[C@H]1C[C@H](n2ccc(N)nc2=O)O[C@@H]1CO` is 58 µM.
Take `Cc1cn([C@H]2C[C@H](N=[N+]=[N-])[C@@H](CO)O2)c(=O)[nH]c1=O` [ZIDOVUDINE]: the EC50 in test [3] was 0.23 µM; in test [1], 0.02 µM.
For the compound `[N-]=[N+]=N[C@H]1C[C@H](n2cc(C(F)(F)F)c(=O)[nH]c2=O)O[C@@H]1CO`, the EC50 in test [1] is above 100 µM.
Still for that read-out and setting: the figure for `O=c1ccn([C@H]2C=C[C@@H](CO)O2)c(=O)[nH]1` is above 100 µM; for `O=c1[nH]c(=O)n([C@H]2CC[C@@H](CO)O2)cc1Br` it is above 100 µM; for `[N-]=[N+]=N[C@H]1C[C@H](n2cc(F)c(N)nc2=O)O[C@@H]1CO` it is above 100 µM.
The same measure, in the same setting: the figure for `Cc1cn([C@H]2C[C@H](N=[N+]=[N-])[C@@H](CN=[N+]=[N-])O2)c(=O)[nH]c1=O` is 17 µM.
The same measure, in the same setting: the figure for `N[C@H]1C[C@H](n2cc(C(F)(F)F)c(=O)[nH]c2=O)O[C@@H]1CO` is above 100 µM; for `Cc1cn([C@H]2C[C@H](O)[C@@H](CN)O2)c(=O)[nH]c1=O` it is above 100 µM.
As for `Nc1ccn([C@H]2C=C[C@@H](CO)O2)c(=O)n1`, the EC50 in test [1] was determined as 3.7 µM.
For `Nc1ccn([C@H]2CC[C@@H](CO)O2)c(=O)n1` [ZALCITABINE], the EC50 in test [1] came to 4 µM.
On the same count and under the same terms, the figure for `Cc1cn([C@H]2C=C[C@@H](CO)O2)c(=O)[nH]c1=O` [STAVUDINE] is 2.5 µM.
